According to patent US10259782B2, “ROR gamma (RORγ) modulators” (LEAD PHARMA HOLDING B.V., priority 2015, dated 2019):

Molecular target: T1, RORγ (Homo sapiens, UniProt P51449)
T1 construct: expressed in transfected cells; host or cells: 293FT cells (Invitrogen), expression vector pFN26A (Promega)
T1 sequence (P51449 269-508 limits assumed): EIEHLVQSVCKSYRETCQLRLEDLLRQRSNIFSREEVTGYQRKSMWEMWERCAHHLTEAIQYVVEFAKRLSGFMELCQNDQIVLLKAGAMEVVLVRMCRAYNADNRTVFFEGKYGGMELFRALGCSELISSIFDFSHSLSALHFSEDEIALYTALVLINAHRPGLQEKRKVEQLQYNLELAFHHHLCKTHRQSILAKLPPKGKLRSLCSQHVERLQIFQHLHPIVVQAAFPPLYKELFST
Assay: RORγ GAL4 reporter gene assay (luciferase readout, 293FT cells)
Format: cell-based
Details: inhibition of RORγ (GAL4-RORγ-LBD) in transfected 293FT cells, luciferase signal, overnight incubation; read-out: mean pIC50 (converted)
Description: RORγ GAL4 Reporter Gene Assay
Example inhibitors 1-47 were tested for their ability to inhibit RORγ activity in a RORγ GAL4 reporter gene assay. The assay procedure and results are described below.
RORγ GAL4 Reporter Gene Assay Description
A GAL4 one-hybrid reporter system employing luciferase readout was established to determine inhibition of RORγ in 293FT cells. The RORγ ligand-binding domain (LBD) was fused to the yeast GAL4 DNA binding domain (DBD) and placed under the control of the human cytomegalovirus (CMV) immediate early promoter, using expression vector pFN26A (Promega) and standard recombinant DNA cloning methods. To serve as a control in the assay, a similar vector was generated in which the GAL4-DBD was fused to Herpes simplex virus protein 16 (VP16), a constitutive transcriptional activator.
To monitor the inhibitory effect of compounds on RORγ, a transcriptional reporter construct was used. The pGL4.35 vector (Promega) contains nine copies of the GAL4 Upstream Activator Sequence (UAS). This sequence drives the transcription of the luciferase reporter gene luc2P in response to binding of a fusion protein containing the GAL4 DNA binding domain, as for example expressed by the GAL4-RORγ-LBD and GAL4-VP16 expression vectors described above. To allow a GAL4 fusion protein to drive the expression of the luciferase reporter, the pGL4.35 expression vector and the appropriate GAL4 fusion protein expression vector were bulk transfected in the 293FT cells using standard transfection techniques.
The day after transfection, cells were plated into 96 well plates, test compound was added and the plates were incubated overnight. Subsequently, the firefly luciferase activity was quantified using luciferase detection reagent and luminescence readout.
Detailed Assay Description
293FT cells (Invitrogen) were transfected with a GAL4 fusion protein expression vector (as described above) and the transcriptional reporter construct (pGL4.35, Promega). 60 μL of TransIT-293 transfection reagent (Mirus Bio) was added drop wise to 1500 μl Opti-MEM I Reduced Serum Medium (Invitrogen) and incubated at room temperature (RT) for 5 to 20 minutes. 1500 μL of this reagent mixture was added to 5 μg of GAL4 fusion protein expression vector and 5 μg of the transcriptional reporter construct, and incubated at RT for 20 minutes.
To harvest 293FT cells from a T75 flask, first the culture medium was taken off the cells. Subsequently, the cells were washed with Phosphate Buffered Saline (PBS) (Lonza), after which the PBS was removed. To dissociate the cells, 1 ml of TrypLE Express (Invitrogen) was added to the flask, followed by incubation at RT until the cells visually started to detach. Cells were collected in 5 mL of assay medium (DMEM culture medium (Lonza), 10% dialyzed FBS (Invitrogen) and Pen/Strep (Lonza)) to achieve a single cell suspension. 10×10^6 cells were spun down and re-suspended in 10 mL of assay medium. Subsequently, the cell suspension was added to the transfection mix tube, and then transferred as a whole to a T75 flask (Greiner), followed by overnight (16-24 hours) incubation at 37° C. and 5% CO2.
For compound screening, the cells were harvested (as described above) and counted. 13×10^6 cells were spun down, the supernatant was aspirated and the cells were re-suspended in 17.3 mL of assay medium obtaining a cell suspension of 0.75×10^6 cells/mL. 80 μL of cell suspension (60,000 cells) was plated per well into a white, flat bottom, tissue culture treated, 96 well screening plates (Greiner).
Test compounds were diluted, starting from a 10 mM dimethylsulf oxide (DMSO) stock solution, to serial dilutions in DMSO at 500× the final test concentration. Subsequently, these solutions were diluted to 5× the final test concentration in two 10-fold-dilution steps in assay medium. The final DMSO concentration of the 5× test compound solution was 1%. […]

IC50, ≤ 100 nM:
Cc1nc(NC(=O)Cc2ccc(S(=O)(=O)NC3CC3)cc2)ccc1-c1ccccc1OC(F)(F)F [Example 34, 2-[4-(cyclopropylsulfamoyl)phenyl]-N-{6-methyl-5-[2-(trifluoromethoxy)phenyl]pyridin-2-yl}acetamide]
O=C(Cc1ccc(S(=O)(=O)NC2CC2)cc1)Nc1ccc(-c2ccccc2OC(F)(F)F)c(Cl)c1 [Example 33, N-{3-chloro-4-[2-(trifluoromethoxy)phenyl]phenyl}-2-[4-(cyclopropylsulfamoyl)phenyl]acetamide]
COc1cccc(Oc2cc(NC(=O)Cc3ccc(S(=O)(=O)CC4CC4)cc3)ccc2-n2cnc(C)c2)c1 [Example 3, 2-(4-cyclopropylmethanesulfonylphenyl)-N-[3-(3-methoxyphenoxy)-4-(4-methyl-1H-imidazol-1-yl)phenyl]acetamide]
COc1cccc(Oc2cc(NC(=O)Cc3ccc(S(=O)(=O)CC4CC4)cc3)ccc2-n2nccc2C)c1 [Example 7, 2-(4-cyclopropylmethanesulfonylphenyl)-N-[3-(3-methoxyphenoxy)-4-(5-methyl-1H-pyrazol-1-yl)phenyl]acetamide]
